The text below walks through data of patent publication US20260176249A1, “PROTEIN KINASE INHIBITOR, PREPARATION METHOD THEREFOR, AND APPLICATION THEREOF” (SHANDONG LUYE PHARMACEUTICAL CO., LTD., priority 2021, published 2026).

A short description of data set [1]: Metabolic stability in rat liver microsomes. It is filed as in vitro ADME. The procedure, abridged:
(§1)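 Compounds incubated at 37 °C with mouse, rat or human liver microsomes in 100 mM phosphate buffer pH 7.4, started with NADPH/MgCl2 and sampled at 0–60 min. Parent remaining quantified by LC-MS. T1/2 and CLint(mic) derived from depletion, scaled to CLint using 45 mg protein/g liver and species liver/body weight ratios.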
For orientation: Liver microsomes are a subcellular fraction often used to study metabolism.

A short description of data set [2]: Metabolic stability in human liver microsomes. It counts as in vitro ADME. In outline: as §1
Data set [3] deals with HCT116 cells. Briefly: In vivo pharmacodynamic study of compound 18 in HCT116 tumor-bearing mice. The arrangement: species or system Balb/C Nude mice. As to conditions: 10 mg/kg once a day by gavage. On the procedure: a. Establishment of tumor-bearing mouse model: HCT116 cells in the logarithmic growth phase were taken and cultured, the cells were collected and counted, and then subcutaneously inoculated into Balb/C Nude mice at 1×10^6/mouse. The tumor volume and body weight of the mice were measured regularly. 7 days after inoculation, mice with tumor volume of 150 mm3 were randomly divided into groups and treated with corresponding drugs.
3. Data processing: All data were organized in EXCEL, and One-way ANOVA analysis and drawing were performed using GraphPad Prism 8.0 software. Statistical significance was achieved when p<0.05.
1. Experiment materials: Same as Test example 5.
a. Establishment of tumor-bearing mouse model: Same as Test example 5.
b. […] The administration was performed once a day by gavage for 7 consecutive days, and the tumor volume and body weight of the mice were measured regularly.
3. Data processing: Same as Test example 5.

The subject of data set [4] is Caco-2 cells. Put plainly: Permeability and efflux transporter substrate evaluation in Caco-2 cells. As to conditions: Caco-2. It is filed as in vitro ADME. The arrangement: Papp A→B at 120 min / Papp B→A at 120 min / efflux ratio at 120 min / Papp at 120 min: dose or concentration left out as unconfirmed. On the procedure:
(§2) The cells were cultured in a carbon dioxide incubator for 21-28 days before being used for transport experiments. During this period, the culture medium was changed every four to five days.
(§3) This project uses Hank's balanced salt buffer (pH 7.40±0.05) containing 10 mM HEPES as the transport buffer. The culture medium was removed from the culture plate and the cells were washed twice with preheated transport buffer (approximately 75 μL and 40 mL of transport buffer for each apical well and basolateral receiver plate respectively). The donor solution and receiver solution were added to the corresponding cell plate wells (75 and 250 μL for each apical and basolateral well respectively), and the bidirectional transport experiment was started (apical to basolateral (A-B) and basolateral to apical (B-A)). The test concentration of the test substance was […], and two replicate wells were made for each dosing concentration. The test concentration of Digoxin was […], with dosing bidirectionally; the test concentrations of nadolol and metoprolol were both […], and they were dosed in one direction (A-B direction), and two replicate wells were made for each of the three control compounds.
(§4) The initial donor solution is the TO sample. After adding the sample, it was mixed with the transport buffer and stop solution in a certain proportion.
(§5) All samples were vortexed, and then centrifuged at 3220×g for 20 min at 20° C. A proper volume of supernatant was transferred to a sample assay plate, and the sample was stored at 2-8° C. if it was not analyzed immediately after the plate was sealed, and LC MS/MS method was used for analysis.
(§6) The Lucifer Yellow Rejection Assay was used to test the integrity of the Caco-2 cell layer.
(§7) The following formulas were used to calculate the apparent permeability coefficient (Papp, cm/s), efflux ratio (ER), and solution recovery (%) (% Solution Recovery).
(§8) [formula] [formula] [formula] • VR is the volume of the receiver side solution (side A is 0.075 mL, side B is 0.25 mL); Area is the relative surface area of the cell monolayer (0.0804 cm^2); Time is the incubation time (7200 s); C0 is the initial concentration (nM) of the test substance at the donor side or the peak area ratio of the control compound; VD is the volume of the donor side (side A is 0.075 mL, side B is 0.25 mL); CD and CR are the final concentration (nM) of the test substance at the donor side and the receiver side respectively or the peak area ratio of the control compound; • Lucifer yellow transmittance rate (% Lucifer Yellow) is calculated using the following formula:
(§9) [formula] • RFUApical and RFUBasolateral are the relative fluorescence intensity of lucifer yellow at the apical and basolateral sides respectively. VApical and VBasolateral are the sample loading volumes at the apical and basolateral sides respectively (0.075 and 0.25 mL respectively).

Experiment in data set [5]: as above
It is filed as in vitro ADME. On the set-up: Papp A→B at 120 min / Papp B→A at 120 min / efflux ratio at 120 min / Papp at 120 min: dose or concentration left out as unconfirmed. As to conditions: human. On the procedure:
as §2, §3, §4, §5, §6, §7, §8, §9

Data set [6] can be described thus: Metabolic stability in mouse liver microsomes. It counts as in vitro ADME. In outline: as §1

By CLint scaled is commonly meant the capacity of the preparation to metabolise the compound, expressed as a volume cleared per time. By half-life is commonly meant the time needed for the level to fall by half in the phase considered. By Papp A→B is commonly meant how fast a substance crosses the layer from the apical side. Usually Papp B→A stands for the apparent permeability from the basolateral to the apical side of a cell layer.

Consider `CN1CCN(c2ccc(OC(F)(F)F)c(Nc3ncc4ccc5c(C(N)=O)nn(CCF)c5c4n3)c2)CC1` [Compound 18], for which the “60 min remaining amount” value in data set [1] is on record as 2.74%; in data set [2], 7.83%; in data set [6], 4.32%. In addition, the Clearance rate result in data set [1], in data set [2] and in data set [6] was “High” throughout. The CLint scaled at 1 µM in data set [1] (rat, pH 7.4) was determined as 30.3 L/h/kg; in data set [2] (human, pH 7.4) it was 4.72 L/h/kg; in data set [6] (mouse, pH 7.4), 24.5 L/h/kg. For the same compound, the half-life at 1 µM in data set [1] (rat, pH 7.4) is 4.94 min; in data set [2] (human, pH 7.4), 15.9 min; in data set [6] (mouse, pH 7.4), 13.4 min. The microsomal CLint at 1 µM was found to be 281 µL/min/mg in data set [1] (rat, pH 7.4, read-out: CLint(mic)); 87.4 µL/min/mg in data set [2] (human, pH 7.4, read-out: CLint(mic)); 103 µL/min/mg in data set [6] (mouse, pH 7.4, read-out: CLint(mic)). Also, the “body weight decrease compared to before administration” value was found to be 7.6% in data set [3] (5 days) and 16.1% in data set [3] (7 days). This compound also came in with a tumor inhibition rate in data set [3] (7 days, vs control group) of 70.9%. Also, in data set [4], the “Classification Efflux transporter substrate” value is “Very unlikely or not (ERa < 2.00)”. Moreover, in data set [5] (Caco-2, pH 7.4, read-out: Classification Permeability), the Papp at 120 min was 5 to 25 nm/s. The Papp A→B at 120 min in data set [5] (pH 7.4, Caco-2, apical to basolateral, 120 min, pH 7.40) came to 20.3 nm/s. For the same compound, the Papp B→A at 120 min in data set [5] (pH 7.4, Caco-2, basolateral to apical, 120 min, pH 7.40) came to 33.6 nm/s.
